Earlier results on 1 substance are cited in US6391860B1, “Method for preparation and use of paste formed by controlled reaction of sucralfate with hydrochloric acid” (priority 1999, dated 2002).

Regarding “aluminum hydroxide salt of sucrose octasulfate [Sucralfate]”, the “solubility in most polar and non-polar solvents” value is given as “insoluble”; the “solubility in strong acid and strong alkali” value is “soluble”.
